Data on five molecules can be found in patent US20120064556A1, “LIPOPROTEIN LIPASE ASSAY” (THE RESEARCH FOUNDATION OF STATE UNIVERSTIY OF NEW YORK, priority 2010, published 2012).

Data set [1] in a line: solubility and shelf life of substrate in the assay buffer. Type of data set: physicochemical.
The subject of a further data set is lipoprotein lipase (LPL). Put plainly: EnzChek substrate fluorescence assay of LPL activity. The settings on record: for increase of LPL activity: over the concentration ranges tested (FIGS. 5A and 5B). The format is biochemical. As for the experimental part: In FIG. 1, background substrate hydrolysis was deducted from each measurement, initial rate was plotted against substrate concentration and each data point is the mean of triplicate determinations.
The effects of components that may be present in biological LPL samples and affect the assay were also evaluated and illustrated in FIG. 5. Addition of heparin and calcium increased LPL activity by about 6% over the concentration ranges tested, shown in FIGS. 5A and 5B, while HIS, added from 0-10% decreased the activity by about 12%, shown in FIG. 5C. Addition of NaCl increased the reaction rate, shown in FIG. 5D, with the highest rate, 46% higher than that without salt, occurring at 0.15 M. As NaCl was increased further, the reaction rate dropped, but even at 2.5 M was not reduced to that without NaCl. This implies that there is no inhibition of LPL activity by NaCl if apoC-II is not used in the assay.
The SpectraMax® M2 plate reader and SoftMax® Pro 5 from MDS Analytical Technologies were used for fluorescent measurements. The optimal wavelength was determined to be […] with a 495 nm filter cutoff. The linear capacity of these instruments is up to 2.4 μmol/well. An assay was performed in a black 96-well plate from Costar® in the presence of 0.15 M NaCl, 20 mM Tris-HCl, and 0.0125% Zwittergent® and 1.5% fatty acid free BSA. A 4× working solution was freshly prepared with 0.6 M NaCl, 80 mM Tris-HCl and 6% fatty acid free BSA. The background hydrolysis rate of the substrate was about 1 pmol/min. In the typical assay, the amount of substrate hydrolyzed was less than about 5% of the available substrate.
Enzymatic parameters were calculated using unquenched the BODIPY-C12 probe, the reaction rate in pmol/min was calculated. The rate of hydrolysis as determined from the continuous increase in fluorescence intensity is equal to the rate of separation of the quencher fatty acid from the substrate. Enzymatic parameters such as Vmax, Km, Kcat, detection limit, Z factors and correlation coefficient were calculated based on the standard definition of those parameters. The data is presented as mean plus standard deviation of three replicates and described below in Example 2 for a comparison of the inventive method and a traditional assay.

In data set [2] the target is T1, human LPL (Homo sapiens, UniProt P06858).
T1 construct: made in house; host or cells: HEK293 (conditioned medium, not purified)
T1 sequence (P06858 28-475): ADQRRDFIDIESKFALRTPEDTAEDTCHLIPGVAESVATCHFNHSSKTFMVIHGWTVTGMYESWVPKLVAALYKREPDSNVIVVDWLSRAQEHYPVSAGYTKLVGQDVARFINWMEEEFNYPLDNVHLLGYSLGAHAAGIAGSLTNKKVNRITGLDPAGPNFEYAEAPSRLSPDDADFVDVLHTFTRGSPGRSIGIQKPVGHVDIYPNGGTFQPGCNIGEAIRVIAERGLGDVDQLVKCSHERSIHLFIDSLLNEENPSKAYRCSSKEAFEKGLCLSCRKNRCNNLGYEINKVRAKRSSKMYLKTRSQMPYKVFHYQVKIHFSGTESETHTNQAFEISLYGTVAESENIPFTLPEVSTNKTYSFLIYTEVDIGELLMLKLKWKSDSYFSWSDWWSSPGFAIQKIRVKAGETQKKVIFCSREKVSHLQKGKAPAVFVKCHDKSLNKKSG
Put plainly: radiolabeled triolein assay of human LPL activity in conditioned media. The following applies: same samples, radiolabeled triolein assay (FIG. 6B). The format is biochemical. The source says: (§1) Background substrate hydrolysis was deducted from each measurement. LPL activity is expressed as a percentage of the activity measured in the absence of ANGPTL4. The values are the mean +/− standard deviation in triplicate repeats, p<0.05.

In data set [3] the target is T1, human LPL. The experiment in a line: EnzChek assay of human LPL activity in conditioned media. The format is biochemical. The settings on record: 25 μL conditioned medium mixed with 25 μL human LPL medium, 30 minutes on ice, 0.62 μM EnzChek substrate, p<0.05 (FIG. 6A). As for the experimental part: Conditioned media was generated by transfection in HEK293 cells as is known. Medium obtained from cells expressing from an empty vector was included as a control for the LPL assay. No lipase activity was detected in the control medium. Pre and post-heparin mouse serum was obtained from blood drawn 5 minutes after the injection of 10 units heparin per kg body weight of the mouse.
To determine whether the conditions of the assay are such that the two forms of the enzyme are maintained and can be differentiated by the biological activity of the lipase, two conditioned media were generated containing human LPL and ANGPTL4 respectively.
as §1

On to `CCCCCCCCCCCCOCC(COC(=O)CCCC(=O)Oc1ccc2nc3ccc(=O)cc-3oc2c1C)OCCCCCCCCCCCC` (racemic) [DGGR substrate, 1,2-o-dilauryl-rac-glycero-3-glutaric acid-(6′-methylresorufin) ester], for which, in data set [1], the “shelf life / precipitation in the assay buffer” value is recorded as “precipitated after only one week” and the “solubility in the assay buffer” value is given as “limited solubility”.
As for `[Cl-].[Na+]` [NaCl], the “reaction rate higher than that without salt” value with lipoprotein lipase (LPL) (highest rate, at 0.15 M (FIG. 5D)) is on record as 46%. In addition, in the data set with lipoprotein lipase (LPL) (up to 2.5 M, apoC-II not used in the assay), the “inhibition of LPL activity” value was “no inhibition”.
Take `[Ca+2]` [calcium]: the “increase of LPL activity” value in the data set on lipoprotein lipase (LPL) was “about 6%”.
For heparin [reference compound], the “increase of LPL activity” value in the data set on lipoprotein lipase (LPL) is “about 6%”.

B1: ANGPTL4 conditioned media: conditioned medium from transfected HEK293 cells containing ANGPTL4, an endogenous inhibitor of LPL (protein, UniProt Q9BY76 26-406, looked up)
Angiopoietin-related protein 4: GPVQSKSPRFASWDEMNVLAHGLLQLGQGLREHAERTRSQLSALERRLSACGSACQGTEGSTDLPLAPESRVDPEVLHSLQTQLKAQNSRIQQLFHKVAQQQRHLEKQHLRIQHLQSQFGLLDHKHLDHEVAKPARRKRLPEMAQPVDPAHNVSRLHRLPRDCQELFQVGERQSGLFEIQPQGSPPFLVNCKMTSDGGWTVIQRRHDGSVDFNRPWEAYKAGFGDPHGEFWLGLEKVHSITGDRNSRLAVQLRDWDGNAELLQFSVHLGGEDTAYSLQLTAPVAGQLGATTVPPSGLSVPFSTWDQDHDLRRDKNCAKSLSGGWWFGTCSHSNLNGQYFRSIPQQRQKLKKGIFWKTWRGRYYPLQATTMLIQPMAAEAAS
modifications: in conditioned medium of transfected HEK293 cells
On to B1, for which the “effect on LPL activity” value with human LPL [2] was “comparable result”; with human LPL [3], “inhibited the LPL activity”.
